Test results published in patent US20120149780A1, “Method of Use of Vitamin K as Energy Enhancer in Diverse Disease States” (priority 2009, published 2012).

Key:
[1] = literature supplemental trials, oral supplementation; cited from earlier work
[2] = Post-chemo restlessness/akathisia in ovarian cancer patient (case report); format: in vivo, human; conditions: Example 05: person, ovarian cancer under chemotherapy
Excerpt: (§1) Person, was diagnosed to have bilateral ovarian cancer in 2005, with ascites and abdominal lymph node metastases. They have undergone surgery and several courses of chemotherapy. […] They are currently under chemotherapy cycles. They tolerated chemotherapy reasonably well but complained of marked fatigue and low energy levels. […] They were given a larger dose of vitamin K2-7 per day. […] They are continued on the dose of vitamin K2-7 for two months.

[3] = tested on: CEA; assay: CEA levels in ovarian cancer patient (case report); format: in vivo, human; conditions: Example 05: person, under chemotherapy and vitamin K2-7
Excerpt: as §1

[4] = Fatigue, energy level and exertion endurance in individual subjects (case reports); format: in vivo, human
Description: Person, suffering from general fatigue. They used to go to Gold gym 5-6 times per month. On the treadmill they used to walk at 5 km/hr speed at the start of the exercise and then gradually increase it to 6 km/hr in the next 15 minutes. When they started taking vitamin K2-7 350 μg per day, within 2 weeks of taking vitamin K2-7, they could start at 6 km/hr and go on up to 6.4 km/hr on the treadmill without feeling the strain they felt earlier. […] Their treadmill experience, was now smooth and ‘effortless’.
as §1
(§2) Their complaints were fatigue, low energy level, muscle cramps and tingling and numbness of lower limbs. […] These returned with drawal and were relieved with re-therapy. […] They were started 350 μg per day of vitamin K2-7 over the two months period.
(§3) Person was having hypertension (160/114 mmHg) but was not on any medication. They complained of fatigue and low energy level. They were put on 3 capsules per day of 100 μg of vitamin K2-7 for 1 month and then on 2 capsule per day of 350 μg of vitamin K2-7 for the next 2 months under close observation by medical doctor. […] They continued the medicine for next couple of month with same dose i.e. 2 capsules per day of 350 μg of vitamin K2-7. […] Then they were taken off from the treatment for 15 days. Blood pressure shot up to 146/108 mmHg, They were again put on vitamin K2-7, 350 μg, 2 capsules per day and their blood pressure came down to 136/100 mmHg.
Person, was heaving history of Spondylosis, Diabetes mellitus and Hypertension. Five years ago they were operated for cataract (right eye). They are on regular medicine i.e. Atenol50™, one per day, after breakfast, Insulin2™ one per day after lunch, and Diaonil5™, two times a day. They were complaining of fatigue and lack of energy so much so that they found ascending 20 steps at a time difficult with related exhaustion and breathlessness. They were advised to take vitamin K2-7, 350 μg, one cap per day.

[5] = Side effects / adverse effects noted during treatment (case reports); format: in vivo, human
Description: as §2
(§4) Person, healthy otherwise, was having blood pressure on higher side i.e. 130/90 mmHg. They were advised to start taking vitamin K2-7, in a dose of 650 μg, one capsule per day.

[6] = Muscle cramps and neuropathic symptoms of lower limbs (case report); format: in vivo, human; conditions: Example 06: person
Description: as §2

[7] = Blood pressure in individual subjects taking vitamin K2-7 (case reports); format: in vivo, human
Description: Person, with hypercholesterolemia (Lipid Profile; 200 mg—Total cholesterol) for which they are taking Atorvastatin 5 mg one per day and 75 mg of Aspirin one per/day since last five years. Underwent angioplasty. They were also having blood pressure which ranges from 136-134/90-88 mmHg. They were taking Telmisartan 40 mg/day from last 4 years for hypertension. Then about 6 months ago they started taking vitamin K2-7 in daily dose of 200 μg. Currently they have stopped taking anti-hypertensive medication from last 1 month. Over a period of 1 and ½ months it is observed that their blood pressure has dropped down to 118-114/78-84 mmHg. Now they are off any anti-hypertensive medicine and continues with vitamin K2-7 only.
as §3, §4

[8] = 500 μg/day, 36-month, older men; cited from earlier work

CN(CC(=O)O)C(=N)N [creatine]
effect of supplementation on VO2max / aerobic capacity / exercise performance [1]: improves exercise performance

O=C1O[C@H]([C@@H](O)CO)C(O)=C1O [vitamin C]
effect of supplementation on VO2max / aerobic capacity / exercise performance [1]: neither vitamin E nor C, either alone or in combination, enhanced exercise performance

CC(O)C(=O)O (stereo not drawn) [lactate]
effect of supplementation on VO2max / aerobic capacity / exercise performance [1]: unaffected

CC(CN1c2ccccc2Sc2ccccc21)N(C)C (stereo not drawn) [phenergan, reference compound]
post-chemo restlessness/akathisia [2]: relieved

CC(C)=CCC/C(C)=C/CC/C(C)=C/CC/C(C)=C/CC/C(C)=C/CC/C(C)=C/CC/C(C)=C/CC1=C(C)C(=O)c2ccccc2C1=O [vitamin K2-7]
CEA levels [3]: dropped markedly | general fatigue ([4]; Example 04: person, 350 μg/day): general fatigue had reduced | treadmill starting speed ([4]; Example 04: person, 350 μg/day, within 2 weeks, earlier start 5 km/hr): 6 km/hr | treadmill speed reached ([4]; Example 04: person, 350 μg/day, within 2 weeks, earlier up to 6 km/hr): 6.4 km/hr | fatigue and energy level ([4]; Example 05: person, ovarian cancer under chemotherapy, 100 μg/day): not much relief in fatigue and energy level | fatigue and energy level ([4]; Example 05: person, ovarian cancer under chemotherapy, larger dose, within six weeks): less fatigue and significant improvement in the energy level | fatigue and low energy levels ([4]; Example 06: person, 100 μg/day): only mildly relieved | fatigue and energy level ([4]; Example 06: person, 350 μg/day over two months): significant relief in fatigue and reasonable increases in the energy level | fatigue and energy at work ([4]; Example 07: person, hypertensive, 2x350 μg/day): improvement in fatigue and feels more energetic at work | energy / ability to climb stairs ([4]; Example 09: person, diabetes and hypertension, 350 μg one cap/day, after a month): started feeling more energetic and would walk up the stairs easily without any problem | post-chemo restlessness/akathisia [2]: did not benefit | side effects ([5]; Example 06: person, 100 then 350 μg/day): no side effects | adverse effects ([5]; Example 08: person, 650 μg/day, 2 months): no adverse effects | symptoms of the nerves and muscle (cramps, tingling and numbness of lower limbs) ([6]; 100 μg/day): significantly relieved | cramps and neuropathic symptoms ([6]; 350 μg/day over two months): markedly reduced | blood pressure ([7]; Example 07: 2x350 μg/day restarted after 15 days off treatment (146/108 off treatment)): 136/100 | blood pressure ([7]; Example 07: continued 2x350 μg/day for next couple of months): 138/104 | blood pressure ([7]; Example 07: person, 3x100 μg/day 1 month then 2x350 μg/day 2 months, baseline 160/114): 140/108 | blood pressure ([7]; Example 08: person, 650 μg one capsule/day, 2 months, baseline 130/90): 112/80

NC(=O)C1=CN([C@@H]2O[C@H](COP(=O)(O)OP(=O)(O)OC[C@H]3O[C@@H](n4cnc5c(N)ncnc54)[C@H](O)[C@@H]3O)[C@@H](O)[C@H]2O)C=CC1 [NADH, Nicotinamide Adenine Dinucleotide Hydride]
effect of supplementation on VO2max / aerobic capacity / exercise performance [1]: no effects on maximal oxygen uptake VO2max, maximal anaerobic running time or mental performance

CN(CC(=O)O)C(=N)N.O [Creatine monohydrate]
effect of supplementation on VO2max / aerobic capacity / exercise performance [1]: did not increase performance

phosphate [Oral phosphate]
effect of supplementation on VO2max / aerobic capacity / exercise performance [1]: no improvement in aerobic capacity

vitamin K
progression of insulin resistance [8]: reduction in progression of insulin resistance

vitamin E
effect of supplementation on VO2max / aerobic capacity / exercise performance [1]: neither vitamin E nor C, either alone or in combination, enhanced exercise performance

C[N+](C)(C)C[C@H](O)CC(=O)[O-] [L-carnitine]
effect of supplementation on VO2max / aerobic capacity / exercise performance [1]: unlikely to be associated with the enhanced exercise performance

OC[C@H]1O[C@@H](n2cnc3c(O)ncnc32)[C@H](O)[C@@H]1O [Inosine]
effect of supplementation on VO2max / aerobic capacity / exercise performance [1]: no effect on aerobic performance
